Read-outs that look alike come from different tables or passages of the source.
Assays:
[1] = target: T1, HCV NS5B polymerase 1a-H77 (Hepatitis C virus genotype 1a, UniProt P27958); test: biochemical; design: species or system HCV genotype 1a; conditions: enzyme, strain 1a H77; read-out: HCV Polymerase Strain 1a H77 IC50
T1 construct: six-histidine tag; made in house; host or cells: E. coli
Method in brief: (§1)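 E. coli-expressed NS5B (residues 1-570, His-tagged) transcribed a 2.1 kb HCV 1b negative-strand 3′-end RNA template (5 nM) with 20 μM CTP, 20 μM ATP and 0.284 μM [3H]UTP for 3 h at 30° C. Spermine-precipitated RNA was filter-captured and counted by scintillation; IC50 from nonlinear regression.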

[2] = target: T2, HCV NS5B polymerase 1a-H77-C316Y (Hepatitis C virus genotype 1a, UniProt P27958, C2736Y); test: biochemical; design: species or system HCV genotype 1a
T2 construct: six-histidine tag; made in house; host or cells: E. coli
T2 sequence (P27958 2421-2990 C2736Y): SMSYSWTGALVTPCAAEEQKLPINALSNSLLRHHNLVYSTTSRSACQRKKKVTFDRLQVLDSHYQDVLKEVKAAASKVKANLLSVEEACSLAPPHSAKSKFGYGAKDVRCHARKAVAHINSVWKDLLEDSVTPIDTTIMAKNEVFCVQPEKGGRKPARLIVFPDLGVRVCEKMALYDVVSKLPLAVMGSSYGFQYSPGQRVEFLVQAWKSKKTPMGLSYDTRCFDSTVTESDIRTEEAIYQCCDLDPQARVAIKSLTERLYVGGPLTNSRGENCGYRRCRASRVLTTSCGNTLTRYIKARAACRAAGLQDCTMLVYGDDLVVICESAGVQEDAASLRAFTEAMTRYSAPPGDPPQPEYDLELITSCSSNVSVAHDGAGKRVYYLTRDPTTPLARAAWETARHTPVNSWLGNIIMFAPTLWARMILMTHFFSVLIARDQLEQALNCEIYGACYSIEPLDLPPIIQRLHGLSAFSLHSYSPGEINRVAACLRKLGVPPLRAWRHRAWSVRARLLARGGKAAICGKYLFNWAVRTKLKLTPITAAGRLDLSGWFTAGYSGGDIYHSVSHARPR
Method in brief: as §1

[3] = system: HCV NS5B polymerase 1a-H77-C316Y; test: biochemical; design: species or system HCV genotype 1a; conditions: ratio of enzyme IC50s, 1a H77-C316Y / 1a H77
Method in brief: as §1

[4] = target: T3, HCV NS5B polymerase 1b BK strain (Hepatitis C virus genotype 1b, UniProt P26663); test: HCV NS5B polymerase enzymatic inhibition assay, strain 1b BK; assay type: biochemical; conditions: enzyme, strain 1b BK; read-out: HCV Polymerase Strain 1b BK IC50
T3 construct: six-histidine tag; made in house; host or cells: E. coli
T3 sequence (P26663 2420-2989): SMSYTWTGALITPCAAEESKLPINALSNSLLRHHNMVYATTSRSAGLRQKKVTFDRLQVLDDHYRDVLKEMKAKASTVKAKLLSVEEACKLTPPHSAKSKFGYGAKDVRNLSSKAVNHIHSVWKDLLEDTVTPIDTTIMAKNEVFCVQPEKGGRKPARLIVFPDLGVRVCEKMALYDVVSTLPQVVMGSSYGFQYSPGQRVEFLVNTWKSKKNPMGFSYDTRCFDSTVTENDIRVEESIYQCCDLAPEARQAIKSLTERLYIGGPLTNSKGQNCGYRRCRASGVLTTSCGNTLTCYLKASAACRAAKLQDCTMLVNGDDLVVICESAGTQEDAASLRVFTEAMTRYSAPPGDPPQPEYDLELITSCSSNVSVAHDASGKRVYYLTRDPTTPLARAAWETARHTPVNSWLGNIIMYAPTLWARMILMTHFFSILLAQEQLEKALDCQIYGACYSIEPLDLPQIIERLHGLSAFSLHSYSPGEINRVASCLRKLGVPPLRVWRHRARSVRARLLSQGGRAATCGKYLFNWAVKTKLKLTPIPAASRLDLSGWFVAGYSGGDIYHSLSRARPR
Method in brief: as §1

[5] = system: HCV 1a-H77 subgenomic replicon; test: microbe, parasite or virus in culture; assay type: cell-based, HCV genotype 1a; conditions: Hepatitis C virus, stable replicon
[6] = system: HCV 1b-BB7 subgenomic replicon; test: microbe, parasite or virus in culture; assay type: cell-based, HCV genotype 1b; conditions: Hepatitis C virus, stable replicon
[7] = system: chimeric replicon with 2a-J6CF-derived NS5B; test: microbe, parasite or virus in culture; assay type: cell-based, HCV genotype 2a; conditions: Hepatitis C virus, read-out: 2a chimera 5% FBS EC50
[8] = system: chimeric replicon with genotype 2b NS5B; test: microbe, parasite or virus in culture; assay type: cell-based, HCV genotype 2b; conditions: Hepatitis C virus, read-out: 2b chimera 5% FBS EC50
[9] = system: chimeric replicon with genotype 3a NS5B; test: microbe, parasite or virus in culture; assay type: cell-based, HCV genotype 3a; conditions: Hepatitis C virus, read-out: 3a chimera 5% FBS EC50
[10] = system: chimeric replicon with genotype 4a NS5B; test: microbe, parasite or virus in culture; assay type: cell-based, HCV genotype 4a; conditions: Hepatitis C virus, read-out: 4a chimera 5% FBS EC50
[11] = 5% FBS, absence of human plasma, read-out: Stable Replicon 1a H77 5% FBS EC50
[12] = strain 1a H77, 5% FBS + 40% human plasma, read-out: 1a H77 5% FBS + 40% Human Plasma EC50
[13] = strain 1a H77, 5% FBS, no human plasma, read-out: 1a H77 5% FBS EC50
[14] = strain 1a H77, 5% FBS, read-out: 1a H77 5% FBS EC50
[15] = strain 1b BB7, 5% FBS + 40% human plasma, read-out: 1b BB7 5% FBS + 40% Human Plasma EC50
[16] = strain 1b BB7, 5% FBS, no human plasma, read-out: 1b BB7 5% FBS EC50
[17] = strain 1b BB7, 5% FBS, read-out: 1b BB7 5% FBS EC50

T1 sequence (P27958 2421-2990): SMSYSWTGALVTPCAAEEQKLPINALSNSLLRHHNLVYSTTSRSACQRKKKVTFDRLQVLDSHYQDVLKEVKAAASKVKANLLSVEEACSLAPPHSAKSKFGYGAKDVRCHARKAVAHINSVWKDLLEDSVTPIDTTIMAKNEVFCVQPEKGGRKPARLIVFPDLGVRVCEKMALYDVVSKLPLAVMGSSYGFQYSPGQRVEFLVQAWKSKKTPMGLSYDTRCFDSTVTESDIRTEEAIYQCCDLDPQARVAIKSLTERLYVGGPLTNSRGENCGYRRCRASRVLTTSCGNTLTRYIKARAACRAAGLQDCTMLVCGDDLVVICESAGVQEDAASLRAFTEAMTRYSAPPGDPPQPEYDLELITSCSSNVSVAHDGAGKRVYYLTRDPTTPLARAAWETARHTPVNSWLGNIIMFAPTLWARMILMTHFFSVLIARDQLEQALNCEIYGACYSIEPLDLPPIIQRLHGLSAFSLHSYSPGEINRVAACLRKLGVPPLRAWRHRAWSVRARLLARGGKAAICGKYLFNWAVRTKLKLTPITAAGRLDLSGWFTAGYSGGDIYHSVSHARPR

Row | Structure (SMILES) | IC50 [1] | IC50 [2] | C316Y/1a Fold Resistance [3] | IC50 [4] | EC50 [5, 11] | EC50 [5, 12] | EC50 [5, 13] | EC50 [5, 14] | EC50 [6, 15] | EC50 [6, 16] | EC50 [6, 17] | EC50 [7] | EC50 [8] | EC50 [9] | EC50 [10]
1 | CS(=O)(=O)N(CCCC#N)c1cc2oc(-c3ccc(F)cc3)c(C3=NOCCN3)c2cc1C1CC1 [Example 133, N-(3-cyanopropyl)-N-[5-cyclopropyl-3-(5,6-dihydro-4H-1,2,4-oxadiazin-3-yl)-2-(4-fluorophenyl)-1-benzofuran-6-yl]methanesulfonamide] | 8 nM | 50 nM | 6 fold | 46 nM | 6.3 nM | 37 nM | 6.3 nM | 6.32 nM | 55 nM | 6 nM | 6 nM | 92 nM | 82 nM | 11 nM | 75 nM
2 | CS(=O)(=O)N(CCCCCO)c1cc2oc(-c3ccc(F)cc3)c(C3=NOCCN3)c2cc1C1CC1 [Example 134, N-[5-cyclopropyl-3-(5,6-dihydro-4H-1,2,4-oxadiazin-3-yl)-2-(4-fluorophenyl)-1-benzofuran-6-yl]-N-(5-hydroxypentyl)methanesulfonamide] | 8 nM | 42 nM | 5 fold | 82 nM | 6.5 nM | 69 nM | 6.5 nM | 6.48 nM | 93 nM | 9 nM | 9 nM | 84 nM | 69 nM | 20 nM | 53 nM
3 | C[S+]([O-])CCN(c1cc2oc(-c3ccc(F)cc3)c(C3=NOCCN3)c2cc1C1CC1)S(C)(=O)=O (stereo not drawn) [Example 138, N-[5-cyclopropyl-3-(5,6-dihydro-4H-1,2,4-oxadiazin-3-yl)-2-(4-fluorophenyl)-1-benzofuran-6-yl]-N-[2-(methylsulfinyl)ethyl]methanesulfonamide] | 9.8 nM | 232 nM | 24 fold | 49 nM | 46.5 nM | 183 nM | 46.5 nM | 46.5 nM | 270 nM | 36 nM | 36 nM | 1000 nM | 1000 nM | 102 nM | 524 nM
4 | C[S+]([O-])CCCN(c1cc2oc(-c3ccc(F)cc3)c(C3=NOCCN3)c2cc1C1CC1)S(C)(=O)=O (stereo not drawn) [Example 139, N-[5-cyclopropyl-3-(5,6-dihydro-4H-1,2,4-oxadiazin-3-yl)-2-(4-fluorophenyl)-1-benzofuran-6-yl]-N-[3-(methylsulfinyl)propyl]methanesulfonamide] | 7.7 nM | 89 nM | 11 fold | 9 nM | 59.2 nM | 648 nM | 59.2 nM | 59.2 nM | 948 nM | 68 nM | 68 nM | 1000 nM | 787 nM | 102 nM | 572 nM
5 | CS(=O)(=O)CCCN(c1cc2oc(-c3ccc(F)cc3)c(C3=NOCCN3)c2cc1C1CC1)S(C)(=O)=O [Example 140, N-[5-cyclopropyl-3-(5,6-dihydro-4H-1,2,4-oxadiazin-3-yl)-2-(4-fluorophenyl)-1-benzofuran-6-yl]-N-[3-(methylsulfonyl)propyl]methanesulfonamide] | 5 nM | 38 nM | 8 fold | 42 nM | 14.5 nM | 122 nM | 14.5 nM | 14.5 nM | 150 nM | 11 nM | 11 nM | 274 nM | 211 nM | 44 nM | 189 nM
6 | CC[S+]([O-])CCN(c1cc2oc(-c3ccc(F)cc3)c(C3=NOCCN3)c2cc1C1CC1)S(C)(=O)=O (stereo not drawn) [Example 141, N-[5-cyclopropyl-3-(5,6-dihydro-4H-1,2,4-oxadiazin-3-yl)-2-(4-fluorophenyl)-1-benzofuran-6-yl]-N-[2-(ethylsulfinyl)ethyl]methanesulfonamide] | 15 nM | 209 nM | 14 fold | 167 nM | 38.5 nM | 275 nM | 38.5 nM | 38.5 nM | 296 nM | 31 nM | 31 nM | 623 nM | 1000 nM | 53 nM | 621 nM
7 | CCS(=O)(=O)CCN(c1cc2oc(-c3ccc(F)cc3)c(C3=NOCCN3)c2cc1C1CC1)S(C)(=O)=O [Example 142, N-[5-cyclopropyl-3-(5,6-dihydro-4H-1,2,4-oxadiazin-3-yl)-2-(4-fluorophenyl)-1-benzofuran-6-yl]-N-[2-(ethylsulfonyl)ethyl]methanesulfonamide] | 7 nM | 59 nM | 8 fold | 42 nM | 11.5 nM | 41 nM | 11.5 nM | 11.5 nM | 110 nM | 11 nM | 11 nM | 193 nM | 368 nM | 21 nM | 161 nM
8 | CCS(=O)(=O)CCCN(c1cc2oc(-c3ccc(F)cc3)c(C3=NOCCN3)c2cc1C1CC1)S(C)(=O)=O [Example 143, N-[5-cyclopropyl-3-(5,6-dihydro-4H-1,2,4-oxadiazin-3-yl)-2-(4-fluorophenyl)-1-benzofuran-6-yl]-N-[3-(ethylsulfonyl)propyl]methanesulfonamide] | 9 nM | 75 nM | 8 fold | 42 nM | 21.8 nM | 125 nM | 21.8 nM | 21.8 nM | 108 nM | 12 nM | 12 nM | 131 nM | 137 nM | 35 nM | 150 nM
9 | CC[S+]([O-])CCCN(c1cc2oc(-c3ccc(F)cc3)c(C3=NOCCN3)c2cc1C1CC1)S(C)(=O)=O (stereo not drawn) [Example 144, N-[5-cyclopropyl-3-(5,6-dihydro-4H-1,2,4-oxadiazin-3-yl)-2-(4-fluorophenyl)-1-benzofuran-6-yl]-N-[3-(ethylsulfinyl)propyl]methanesulfonamide] | 7 nM | 89 nM | 13 fold | 92 nM | 39 nM | 254 nM | 39 nM | 39 nM | 333 nM | 37 nM | 37 nM | 380 nM | 419 nM | 62 nM | 380 nM
10 | [2H]C1([2H])NC(c2c(-c3ccc(F)cc3)oc3cc(N(CCCCS(C)(=O)=O)S(C)(=O)=O)c(C4CC4)cc23)=NO1 [Example 150, N-{5-cyclopropyl-3-[(5,5-^2H2)-4,5-dihydro-1,2,4-oxadiazol-3-yl]-2-(4-fluorophenyl)-1-benzofuran-6-yl}-N-[4-(methylsulfonyl)butyl]methanesulfonamide] | 4 nM | 42 nM | 11 fold | 5 nM | 5 nM | 320 nM | 5 nM | 5 nM | 231 nM | 4 nM | 4 nM | 43 nM | 30.9 nM | 7 nM | 25 nM
11 | CC(C)CCN(c1cc2oc(-c3ccc(F)cc3)c(C3=NOCC(=O)N3)c2cc1C1CC1)S(C)(=O)=O [Example 162, N-[5-cyclopropyl-2-(4-fluorophenyl)-3-(5-oxo-5,6-dihydro-4H-1,2,4-oxadiazin-3-yl)-1-benzofuran-6-yl]-N-(3-methylbutyl)methanesulfonamide] | 35.7 nM | 1200 nM | 34 fold | 711 nM | 248 nM | 10000 nM | 248 nM | 248 nM | 9710 nM | 327 nM | 327 nM | 1000 nM | 1000 nM | 1000 nM | > 1000 nM
